Laboratory results as given in patent US7732412B2, “Methods of treatment using novel LHRH antagonists having improved solubility properties” (Zentaris GmbH, priority 1999, dated 2010).
Numbered stars: 1 amine (or outer) side, 2 acyl side, 3 side chain; on linkers, the order of the positions; unused ones are H or OH. Square brackets hold non-standard residues; d marks the D form. Side chains are listed from the residue outwards. Peptide text beside a SMILES is read from it. * marks the point of attachment. NH(4-amidinophenyl) = N=C(N)c1ccc(N*)cc1; dPhe(4-Cl) = N[C@H](Cc1ccc(Cl)cc1)C(=O)O; d2Nal = N[C@H](Cc1ccc2ccccc2c1)C(=O)O; Lys(iPr) = CC(C)NCCCC[C@H](N)C(=O)O; NMeY = CN[C@@H](Cc1ccc(O)cc1)C(=O)O; dCit = NC(=O)NCCC[C@@H](N)C(=O)O; d3Pal = N[C@H](Cc1cccnc1)C(=O)O; Suc = O=C(CCC(=O)[*:2])[*:1]

How the values were obtained:
human LHRH receptor [1] = molecular target: T1, human LHRH receptor (Homo sapiens, UniProt P30968); assay: functional assay for antagonistic activity, fos-Luc luciferase reporter gene, stimulation with 1 nM [D-Trp6] LHRH; type: cell-based; parameters: expressed in transfected cells; settings: cells stimulated with 1 nM [D-Trp6] LHRH for 6 h; bracket = number of independent experiments
T1 sequence (P30968 1-328): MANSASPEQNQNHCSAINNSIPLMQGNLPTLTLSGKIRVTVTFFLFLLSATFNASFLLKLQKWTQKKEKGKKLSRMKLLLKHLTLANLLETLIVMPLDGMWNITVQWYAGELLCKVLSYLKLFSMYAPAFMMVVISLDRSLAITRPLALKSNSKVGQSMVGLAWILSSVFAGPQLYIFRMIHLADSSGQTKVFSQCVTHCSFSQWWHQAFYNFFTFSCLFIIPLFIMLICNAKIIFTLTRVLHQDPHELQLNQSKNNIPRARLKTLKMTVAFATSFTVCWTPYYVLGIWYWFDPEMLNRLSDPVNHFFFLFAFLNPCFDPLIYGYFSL
Protocol: The assay for the functional characterization of antagonistic analogs of LH-RH was carried out, with some modifications, as described in Beckers et al., “Characterization of gonadotropin-releasing hormone analogs based on a sensitive cellular luciferase reporter gene assay” (1997) Analyt. Biochem. 251, 17-23. The assay uses a reporter gene made by fusing the c-fos immediate-early gene promoter to a DNA sequence encoding luciferase (Luc). A recombinant cell line that expresses the human LH-RH. receptor is stably transfected with the fos-Luc reporter gene. Transcription of the fos-Luc fusion gene and synthesis of the Luc protein is induced in the cells in a dose-dependent manner by LH-RH and other LH-RH agonists that bind and signal through the human LH-RH receptor. Peptide LH-RH antagonists such as the compounds of the invention bind to cellular LH-RH receptors and inhibit this stimulation. The antagonistic potency (IC50) of peptide LH-RH antagonists as determined by the assay generally correlates well with the binding affinity (KD) of the LH-RH antagonists for LH-RH receptor as determined from ligand binding experiments.
Cells containing the fos-Luc reporter gene that express the human LH-RH receptor were cultured for 24 h in microtitre plates using DMEM with additives and 1% (v:v) FCS (10,000 cells per well). The cells were then stimulated with 1 nM [D-Trp^6] LHRH for 6 h. Peptide LH-RH antagonist compounds according to the invention were added before the stimulation, and the cells were lysed at the end for quantification of the cellular Luc activity. The calculation of the IC50 values from dose-effect curves was carried out by non-linear regression analysis using the Hill model (Programme EDX 2.0 from C. Grunwald, Arzneimittelwerk Dresden).
The quantification of the Luc activity was carried out in duplicate essentially as described (Promega Technical Bulletins #101/161) using the respective luciferase assay system (Promega E4030). Owing to addition of coenzyme A (CoA), an oxidation of luciferyl-CoA takes place with advantageous kinetics. After the removal of the culture medium from the microtitre plate, the cells were lysed by addition of 100 μl of lysis buffer (25 mM tris-phosphate pH 7.8, 2 mM dithiothreitol, 2 mM 1,2-diaminocyclohexane-N,N,N′,N′-tetraacetic acid (CDTA), 10% (v:v) glycerol, 1% (v:v) Triton X-100). After incubation at room temperature for 15 min, 10 μl of cell lysate were transferred into a white microtitre plate suitable for luminometric detection (Dynatech). The enzymatic reaction was initiated by addition of 50 μl of assay buffer (20 mM tricine pH 7.8, 1.07 mM (MgCO3)4Mg(OH)2, 2.67 mM MgSO4, 0.1 mM ethylene-diaminetetraacetic acid (EDTA), 33.3 mM dithiothreitol, 270 μM coenzyme A, 470 μM glow-worm (Photinus pyralis) luciferin, 530 μM rATPNa2). After one minute, the luminescence was determined for a total time of one second with a signal half-life of five minutes using the EG&G Berthold MicroLumat LB 96 P.

human LHRH receptor [2] = molecular target: T1, human LHRH receptor; assay: receptor binding assay, displacement of [125I]-cetrorelix on intact cells; parameters: expressed in transfected cells; host or cells: LTK cells (stably transfected), intact cells; settings: LTK cells expressing human LHRH receptor, 1 h at 37° C.; bracket = number of independent experiments; read-out: KD (binding affinity)
From the text: The compounds according to formula I of the invention were investigated for their receptor binding. The assay method closely followed the process described in Beckers et al., “Selection and characterization of mammalian cell lines with stable overexpression of human pituitary receptors for gonadoliberin (GnRH)” (1995) Eur. J. Biochem., 231, 535-543. Cetrorelix obtained according to the synthesis disclosed above was iodinated with [^125I] (Amersham; specific activity 80.5 Bq/fmol) using the IodoGen reagent (Pierce). The reaction mixture was purified by reverse-phase high-performance liquid chromatography with exchanged phases, monoiodinated cetrorelix being obtained without unlabelled peptide. In each case, about 80% of the [^125I]-cetrorelix was capable of specific receptor association.
The receptor binding assay was carried out under physiological conditions as described (Beckers et al., 1995) using intact cells. Subconfluent cultures of stably transfected LTK cells, which express the human LHRH receptor, were separated off by incubation in NaCl/Pi (137 mM NaCl, 2.7 mM KCl, 8.1 mM Na2HPO4, […])/1 mM EDTA and collected by centrifugation. The cell pellet was resuspended in binding buffer (DMEM without H2CO3, with 4.5 g/l of glucose, 10 mM Hepes pH 7.5, 0.5% (mass/volume) BSA, 1 g/l bacitracin, 0.1 g/l SBTI, 0.1% (mass/volume) NaN3). For displacement assays, 0.25×10^6 cells/100 μl were incubated with approximately 225 pM of the [^125I]-cetrorelix (specific activity 5-10×10^5 dpm/pmol) and various concentrations of unlabelled compound according to the invention as competitor. The cell suspension in 100 μl of binding medium was layered in 400 μl assay tubes over 200 μl of 84% by volume silicone oil (Merck Type 550)/16% by volume paraffin oil. […] Cell pellet and supernatants were then analysed by counting the y radiation. The amount of non-specifically bound material was determined at a final concentration of 1 μM with inclusion of unlabelled cetrorelix and was typically ≦10% of the total bound material. […]

Row | IC50 (human LHRH receptor [1]) [nM] | Kd (human LHRH receptor [2]) [nM] | SMILES
1 | 0.684 | 0.181 | CC(=O)N[C@H](Cc1ccc2ccccc2c1)C(=O)N[C@H](Cc1ccc(Cl)cc1)C(=O)N[C@H](Cc1cccnc1)C(=O)N[C@@H](CO)C(=O)N(C)[C@@H](Cc1ccc(O)cc1)C(=O)N[C@H](CCCCNC(=O)CCC(=O)Nc1ccc(C(=N)N)cc1)C(=O)N[C@@H](CC(C)C)C(=O)N[C@@H](CCCCNC(C)C)C(=O)N1CCC[C@H]1C(=O)N[C@H](C)C(N)=O [Example 2, Ac-D-Nal(2)^1-D-Cpa^2-D-Pal(3)^3-Ser^4-N-Me-Tyr^5-D-Lys(B)^6-Leu^7-Lys(iPr)^8-Pro^9-D-Ala^10-NH2] (Ac-[d2Nal][dPhe(4-Cl)][d3Pal]S[NMeY][dK]([Suc-NH(4-amidinophenyl)])L[Lys(iPr)]P[dA]-NH2)
2 | 0.492 | 0.154 | CC(=O)N[C@H](Cc1ccc2ccccc2c1)C(=O)N[C@H](Cc1ccc(Cl)cc1)C(=O)N[C@H](Cc1cccnc1)C(=O)N[C@@H](CO)C(=O)N(C)[C@@H](Cc1ccc(O)cc1)C(=O)N[C@H](CCCCNC(=O)CCC(=O)Nc1ccc(C(=N)N)cc1)C(=O)N[C@@H](CC(C)C)C(=O)N[C@@H](CCCNC(=N)N)C(=O)N1CCC[C@H]1C(=O)N[C@H](C)C(N)=O [Example 3, Ac-D-Nal(2)^1-D-Cpa^2-D-Pal(3)^3-ser^4-N-Me-Tyr^5-D-Lys(B)^6-Leu^7-Arg^8-Pro^9-D-Ala^10-NH2] (Ac-[d2Nal][dPhe(4-Cl)][d3Pal]S[NMeY][dK]([Suc-NH(4-amidinophenyl)])LRP[dA]-NH2)

Row | SMILES | IC50 (human LHRH receptor [1]) [nM] | Kd (human LHRH receptor [2]) [nM]
3 | CC(=O)N[C@H](Cc1ccc2ccccc2c1)C(=O)N[C@H](Cc1ccc(Cl)cc1)C(=O)N[C@H](Cc1cccnc1)C(=O)N[C@@H](CO)C(=O)N[C@@H](Cc1ccc(O)cc1)C(=O)N[C@H](CCCNC(N)=O)C(=O)N[C@@H](CC(C)C)C(=O)N[C@@H](CCCNC(=N)N)C(=O)N1CCC[C@H]1C(=O)N[C@H](C)C(N)=O [cetrorelix, Ac-D-Nal(2)^1-D-Cpa^2-D-Pal(3)^3-Ser^4-Tyr^5-D-Cit^6-Leu^7-Arg^8-Pro^9-D-Ala^10-NH2, reference compound] (Ac-[d2Nal][dPhe(4-Cl)][d3Pal]SY[dCit]LRP[dA]-NH2) | 0.198 | 0.17
